Measured values taken from patent publication US5455241A, “Polycyclic compounds and processes for the preparation thereof” (Ciba-Geigy Corporation, priority 1993, dated 1995).
Where two headings read alike, the source gives them in different places.

Assays:
[1] = Stability in solution; assay type: physicochemical
[2] = tested on: human bladder tumours T24; experiment: Anti-tumour activity in vivo, s.c. transplanted human bladder tumours T24 in hairless mice; set-up: species or system human tumour in female Balb/c hairless mice; conditions: 15 days
Protocol: Female Balb/c hairless mice with s.c. transplanted human bladder tumours T24 are used to determine the anti-tumour activity. With the animals under peroral forene narcosis, approximately 25 mg of a solid tumour are placed under the skin on "the animals' left flank on day 0 and the small incised wound is closed by means of suture clips. On day 6 after the transplantation, the mice are divided at random into groups of 6 animals and treatment commences. The treatment is carried out for 15 days with peroral or intraperitoneal administration once daily of a compound of formula I in dimethyl sulfoxide/Tween 80/sodium chloride solution in the various doses. The tumours are measured twice a week with a slide gauge and the volume of the tumours is calculated. In this test, the peroral or intraperitoneal administration of 3 mg/kg daily of a compound of formula I brings about a reduction in the average tumour volume to from 10 to 15% of the tumour volume in the untreated control animals.
Example 10: Anti-tumour activity of N-[0-(tetrahydropyran-4-yl)-D-lactoyl]-staurosporin in vivo:
The substance is formulated as follows: 12.5 mg of active ingredient are dissolved in 0.25 ml of dimethyl sulfoxide and mixed with 50 μof Tween 80.4.7 ml of a 0.9% sodium chloride solution are then added and the whole is mixed thoroughly.
Female Balb/c hairless mice with s.c. transplanted human bladder tumours T24 are used to determine the anti-tumour activity. With the animals under peroral forene narcosis, approximately 25 mg of a solid tumour are placed under the skin on the animals' left flank on day 0 and the small incised wound is closed by means of suture clips. On day 6 after the transplantation, the mice are divided at random into groups of 6 animals and treatment commences. The treatment is carried out for 15 days with the administration once daily of the various doses. The tumours are measured twice a week with a slide gauge and the volume of the tumours is calculated. The results are compiled in the following Table in which "dose" is the daily dose, "admin." is the mode of administration, "exper." is experiment and "T/C %" is the percentage quotient of the values in the treated mice and the untreated control mice.

[3] = Determination of the maximum tolerated dose (MTD); conditions: mouse, in vivo, 3 female Balb/c mice per dose, within 7 days
Protocol: Example 11: Determination of the maximum tolerated dose (MTD) of N-[0-(tetrahydro-pyran-4-yl) -D-lactoyl]- staurosporin
3 female Balb/c mice per dose are treated i.p. or p.o. with N-[O]-(tetrahydropyran-4-yl)-D-lactoyl]-staurosporin in dimethyl sulfoxide […]/sodium chloride solution (see Example 10 for formulation). The dose is increased until animals succumb within 7 days.

CO[C@@H]1[C@H](N(C)C(=O)COC2CCOCC2)C[C@H]2O[C@]1(C)n1c3ccccc3c3c4c(c5c6ccccc6n2c5c31)C(=O)NC4O (stereo partly shown) [Example 7, N-[2-(tetrahydropyran-4-yl-oxy)-acetyl]-7-hydroxy-staurospo]
stability in solution [1]: unstable in solution

CO[C@@H]1[C@H](N(C)C(=O)[C@@H](C)OC2CCOCC2)C[C@H]2O[C@]1(C)n1c3ccccc3c3c4c(c5c6ccccc6n2c5c31)C(=O)NC4 [N-[O-(tetrahydropyran-4-yl)-D-lactoyl]-staurosporin]
average tumour volume [T/C %] ([2]; 0.19 mg/kg daily i.p., Exper. 2): 74%
average tumour volume [T/C %] ([2]; 0.38 mg/kg daily i.p., Exper. 2): 62%
average tumour volume [T/C %] ([2]; 0.75 mg/kg daily i.p., Exper. 2): 32%
average tumour volume [T/C %] ([2]; 0.78 mg/kg daily p.o., Exper. 2): 58%
average tumour volume [T/C %] ([2]; 1.50 mg/kg daily i.p., Exper. 1): 14%
average tumour volume [T/C %] ([2]; 1.50 mg/kg daily i.p., Exper. 2): 19%
average tumour volume [T/C %] ([2]; 1.56 mg/kg daily p.o., Exper. 2): 31%
average tumour volume [T/C %] ([2]; 3.00 mg/kg daily i.p., Exper. 1): 9%
average tumour volume [T/C %] ([2]; 3.00 mg/kg daily i.p., Exper. 2): 11%
average tumour volume [T/C %] ([2]; 3.13 mg/kg daily p.o., Exper. 1): 17%
average tumour volume [T/C %] ([2]; 3.13 mg/kg daily p.o., Exper. 2): 14%
average tumour volume [T/C %] ([2]; 6.25 mg/kg daily p.o., Exper. 1): 15%
average tumour volume [T/C %] ([2]; 6.25 mg/kg daily p.o., Exper. 2): 12%
MTD at 168 h ([3]; ip, read-out: MTD (i.p.)): 31.2 mg/kg
MTD at 168 h ([3]; po, read-out: MTD (p.o.)): 62.5 mg/kg
